Experimental data taken from patent publication US6608080B1, “Morphan derivatives or salts thereof and medicinal compositions containing the same” (Hisamitsu Pharmaceutical Co., Ltd., priority 1999, dated 2003).
Where a name gives a salt, the structure may show the parent alone.

What was measured:
glycine receptors = assay: ionic current induced by glycine in a single neuron of the tractus solitarius nucleus, whole cell patch clamp; assay type: cell-based, guinea pig; set-up: key to Action (class symbol): ±: no action; +: potentiated; −: inhibited; conditions: for Action (% of control): mean ± S.E.; for type of effect on glycine-induced ionic currents (in words): classification, 1 mM, example 7 at 300 μM
Description: In order to confirm the excellent actions of the derivatives described in the present invention on modification of glycine receptors, the actions of various morphan derivatives against ionic current induced by glycine were evaluated in a single neuron of the tractus solitarius nucleus of a guinea pig.
The isolation of a single neuron was performed according to the method described in Kay et al. (J. Neurosci. Meth., 16, 227-238, 1986). Guinea pigs, Hartley strain, 7-10 days of age, were anesthetized, bled and decapitated and the medullae were rapidly extracted. Sliced sections, thickness 400 μm, were prepared by using a microslicer. The sliced segments obtained were incubated at 37° C. for 30 minutes, and regions of the tractus solitarius nucleus were punched out under a stereoscope. The punched out specimens were trypsinized in a 100% oxygen atmosphere at 37° C. for 30-60 minutes. The trypsinized tissues were dispersed mechanically to obtain the single neurons. Measurements of the ionic currents activated by glycine were performed using the whole cell mode of the patch clamp method. The ionic currents obtained were recorded using a pen-recorder. Administration of the test compounds was performed by the Y-tube method in which the external fluid peripheral to the cells could be changed to the test drug solution within 2 msec. (Neurosci. Lett., 103, 56-63, 1989). Concentrations of the test compounds were 1 mM, except that the highly lipophilic compound of example 7 was examined at 300 μM. All data were expressed by mean±S.E.
In Table 1, the effects of the morphan derivatives on ionic currents in single neurons from the tractus solitarius nucleus, induced by glycine at 30 μM are summarized.

GABA-induced currents = GABA-induced currents in a single neuron, whole cell patch clamp; assay type: cell-based, guinea pig; conditions: test compound 1 mM; GABA 30 μM (FIG. 1)
[1] = glycine 30 μM, test compound 300 μM
[2] = glycine 30 μM, test compound 1 mM

| SMILES | type of effect on glycine-induced ionic currents (in words) (glycine receptors) | Action (class symbol) (glycine receptors; [2]) | Action (% of control) (glycine receptors; [2]) [%] | further results |
| --- | --- | --- | --- | --- |
| C=CCC12CCCC(CCN1Cc1ccccc1O)C2 (stereo not drawn) [Example 7, 2-{[1-Allyl-(2-propenyl)-2-azabicyclo[3.3.1]nonane-2-yl]methyl}phenol] |  |  |  | concentration range of concentration-dependent inhibition of glycine-induced currents (glycine receptors; FIG. 2, glycine 30 μM): 10 to 300 µM; Action (class symbol) (glycine receptors; [1]): −; Action (% of control) (glycine receptors; [1]): 60.5 ± 2.7% |
| CCCC12CCCC(CCN1)C2 (stereo not drawn) [Example 5, 1-Propyl-2-azabicyclo[3.3.1]nonane] | potentiation action | + | 138.1 ± 7.0 |  |
| C1CC2CCN3CCCC3(C1)C2 (stereo not drawn) [Example 6, 5-Azatricyclo[6.3.1.0^1,5]dodecane] | potentiation action | + | 152.1 ± 16.6 |  |
| CN1CCC2CCCC1C2 (stereo not drawn) [Example 1, 2-Methyl-2-azabicyclo[3.3.1]nonane] | weak action | ± | 99.7 ± 1.5 |  |
| C=CCN1CCC2CCCC1C2 (stereo not drawn) [Example 3, 2-Allyl-2-azabicyclo[3.3.1]nonane] | potentiation action | + | 138.9 ± 5.6 |  |
| CCC12CCCC(CCN1)C2 (stereo not drawn) [Example 4, 1-Ethyl-2-azabicyclo[3.3.1]nonane] | inhibitory action | − | 70.9 ± 2.7 |  |
| CCN1CCC2CCCC1C2 (stereo not drawn) [Example 2, 2-Ethyl-2-azabicyclo[3.3.1]nonane] | potentiation action | + | 150.6 ± 14.2 | rank of action on glycine-induced current (glycine receptors; glycine 30 μM): strongest enhancing action; action against GABA-induced currents (GABA-induced currents): no action |
| CN1CCC2CCCC1C2 (stereo not drawn) (as salt: hydrochloric acid salt) [Example 1, 2-Methyl-2-azabicyclo[3.3.1]nonane] |  |  |  | melting point: 147 to 152 °C |
